# Experimental data published in US11078166B2, “Triazole conjugated ureas, thioureas, carbamates, and reversed carbamates for PSMA-targeted imaging agents and uses thereof” (THE JOHNS HOPKINS UNIVERSITY, priority 2015, dated 2021).
# Entries after “also recorded” stand apart in the source; their conditions may differ. Like-named read-outs stand apart in the source and are kept apart here.
# Key:
# PSMA [1] = molecular target: T1, PSMA (Homo sapiens, UniProt Q04609); assay: NAALADase assay (fluorescence-based Amplex Red glutamic acid assay), PSMA inhibition; type: biochemical; conditions: for Ki: LNCaP cell lysates, 4 μM NAAG, Cheng-Prusoff conversion
# T1 construct: endogenous in cells; host or cells: LNCaP cell lysate
# T1 sequence (Q04609 whole entry): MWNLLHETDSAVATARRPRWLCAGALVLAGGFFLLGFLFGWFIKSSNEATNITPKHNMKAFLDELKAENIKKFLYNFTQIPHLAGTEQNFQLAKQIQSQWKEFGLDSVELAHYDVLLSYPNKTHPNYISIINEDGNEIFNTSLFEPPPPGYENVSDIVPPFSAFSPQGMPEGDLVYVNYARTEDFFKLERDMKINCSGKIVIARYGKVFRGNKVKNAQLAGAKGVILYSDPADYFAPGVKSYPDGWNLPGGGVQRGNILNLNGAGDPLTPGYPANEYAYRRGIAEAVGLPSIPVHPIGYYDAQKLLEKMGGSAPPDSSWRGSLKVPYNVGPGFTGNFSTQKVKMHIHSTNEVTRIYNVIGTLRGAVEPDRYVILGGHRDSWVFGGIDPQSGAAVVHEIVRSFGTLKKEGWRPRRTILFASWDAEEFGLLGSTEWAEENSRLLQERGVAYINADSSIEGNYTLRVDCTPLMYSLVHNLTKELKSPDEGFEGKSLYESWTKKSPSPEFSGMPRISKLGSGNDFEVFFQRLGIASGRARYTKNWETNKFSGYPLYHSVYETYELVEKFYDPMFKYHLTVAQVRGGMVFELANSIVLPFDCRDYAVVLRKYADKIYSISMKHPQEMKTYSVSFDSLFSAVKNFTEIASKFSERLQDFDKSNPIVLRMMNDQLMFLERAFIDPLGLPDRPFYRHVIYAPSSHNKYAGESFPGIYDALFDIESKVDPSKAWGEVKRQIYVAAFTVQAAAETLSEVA
# Method: NAALADase Assay (Kozikowski et al., J. Med. Chem. 2004). The binding affinities of compounds YC-88, YC-71 and YC-XY-01 were tested with an established protocol. Briefly, cell lysates of Lymph Node Carcinoma of the Prostate (LNCaP) cell extracts (25 μL) were incubated with the inhibitor (12.5 μL) in the presence of 4 μM N-acetylaspartylglutamate (NAAG) (12.5 μL) at 37° C. for 120 min. The amount of the glutamate released by NAAG hydrolysis was measured by incubating with a working solution (50 μL) of the Amplex Red Glutamic Acid Kit (Life Technologies, Grand Island, N.Y.) at 37° C. for 60 min. Fluorescence was measured with a VICTOR^3V multilabel plate reader (Perkin Elmer Inc., Waltham, Mass.) with excitation at 490 nm and emission at 642 nm. Inhibition curves were determined using semi-log plots and IC50 values were determined at the concentration at which enzyme activity was inhibited by 50%. Assays were performed in triplicate with the entire inhibition study being repeated at least once to confirm affinity and mode of inhibition. Enzyme inhibitory constants (Ki values) were generated using the Cheng-Prusoff conversion. […]. Data analysis was performed using GraphPad Prism version 4.00 for Windows (GraphPad Software, San Diego, Calif.).
# PSMA Inhibition Assay. The PSMA binding affinity of YC-88 were determined using a modification of the Amplex Red glutamic acid assay (Chen et al., Biochem. Biophys. Res. Commun. 2009).
# PSMA [2] = molecular target: T1, PSMA; conditions: from Chen et al. 2008 and 2011; read-out: Ki value, PSMA (for comparison); cited from earlier work
# [3] = Lipophilicity, octanol-water partition coefficient by shake-flask method; type: physicochemical; conditions: pH 7.4
# Method: Lipophilicity Determination. Octanol-water partition coefficients [log P (pH 7.4) values] were determined according to a literature procedure (Banerjee et al., J. Med. Chem. 2010). […] After vigorously shaking the mixture, it was centrifuged at 3,000 rpm for 5 min. Aliquots were removed from the two phases, and the radioactivity was measured in a 1282 Compugamma CS γ-counter, (LKB, Wallac, Turku, Finland).
# Lipophilicity. Octanol-water partition coefficient (log P) values were measured by the shake-flask method using 1-octanol and PBS (pH 7.4). The log P of [^18F]YC-88 at pH 7.4 was −3.91.
# [4] = Radiation dosimetry: kidney biological clearance half-life and AUC from % ID/g data; type: in vivo, NOD-SCID mice; conditions: for AUC in kidneys / Biological half-life in kidneys: single exponential fit of kidney % ID/g
# Text: Radiation Dosimetry. […] The simulation analysis and modeling software package SAAM II (The Epsilon Group, Charlottesville, Va.) was used to perform the fits.
compound,measurement,setting,value
"O=C(O)CCC(NC(=O)NC(CCCCNC(=O)CCc1cn(CCF)nn1)C(=O)O)C(=O)O (stereo not shown) [YC-88, 2-[3-(1-Carboxy-5-{3-[1-(2-fluoroethyl)-1H-1,2,3-triazol-yl]propanamido}pentyl)ureido]pentanedioic Acid]",Binding affinity to PSMA (in words),PSMA [1],high affinity for PSMA; also recorded: high binding affinity to PSMA
same,Ki,PSMA [1],12.9 nM
O=C(O)CCC(NC(=O)NC(CCCCNC(=O)c1ccc(F)cc1)C(=O)O)C(=O)O (stereo not shown) [DCFBzL],Ki,PSMA [2],0.19 nM
"O=C(O)CC[C@H](OC(=O)N[C@@H](CCCCNC(=O)CCc1cn(CCF)nn1)C(=O)O)C(=O)O [YC-XY-01, (S)-2-((((S)-1-carboxy-5-(3-(1-(2-fluoroethyl)-1H-1,2,3-triazol-4-yl)propanamido)pentyl)carbamoyl)oxy)pentanedioic acid]",Binding affinity to PSMA (in words),PSMA [1],high binding affinity to PSMA
same,Ki,PSMA [1],473 nM
"O=C(O)CCC(NC(=O)NC(CCCCNC(=O)c1ccc([18F])nc1)C(=O)O)C(=O)O (stereo not shown) [[^18F]DCFPyL, 2-(3-{1-carboxy-5-[(6-[^18F]fluoropyridine-3-carbonyl)-amino]-pentyl}-ureido)-pentanedioic acid, reference compound]",log P (octanol-water partition coefficient),[3]; 1-octanol and PBS,−3.27
same,AUC in kidneys,[4],340.74 % ID/g-h
same,Biological half-life in kidneys,[4],1.20 h
O=C(O)CC[C@H](NC(=O)N[C@@H](CSCc1ccc(F)cc1)C(=O)O)C(=O)O [DCFBC],Ki,PSMA [2],0.44 nM
O=C(O)CCC(NC(=O)NC(CCCCNC(=O)CCCCCCC(=O)NC(CCCCNC(=O)CCc1cn(CCF)nn1)C(=O)O)C(=O)O)C(=O)O (stereo not shown) [YC-71],Binding affinity to PSMA (in words),PSMA [1],high binding affinity to PSMA
same,Ki,PSMA [1],0.6 nM
"O=C(O)CC[C@H](NC(=O)N[C@@H](CCCCNC(=O)CCc1cn(CC[18F])nn1)C(=O)O)C(=O)O [[^18F]YC-88, 2-[3-(1-carboxy-5-{3-[1-(2-[^18F]fluoroethyl)-1H-1,2,3-triazol-yl]propanamido}pentyl)ureido]-pentanedioic acid]",logP,[3],-3.91
same,AUC ratio (agent/YC-88) in kidneys,"[4]; mouse, in vivo",1
same,"Kidney absorbed dose, decrease compared to [^18F]DCFPyL","[4]; mouse, in vivo",~5 fold
same,AUC in kidneys,[4],70.7 % ID/g-h
same,Biological half-life in kidneys,[4],1.52 h
